Reference: patent US20120157519A1 (priority 2009, published 2012)

Experiments:
primary NK cells = type: cell-based; conditions: 24 hours incubation, 0.1-5 μg/ml, supernatant ELISA
H5N1 influenza virus = system: H5N1 influenza virus; design: species or system BALB/c mice; conditions: mouse, in vivo
[1] = system: mouse cytomegalovirus (MCMV); conditions: Sredni et al., Immunol Lett 1994; cited from earlier work
YTS cells = type: cell-based
721.221 target cells = type: cell-based; conditions: effector cells pre-incubated 24 hours with AS101; high concentrations less effective than moderate
INFγ = type: in vivo, mice; conditions: treated 24 hours before infection, six days after infection
H5N1 virus = type: cell-based
[2] = system: H1N1 (swine) influenza virus; type: cell-based, swine influenza H1N1v virus
[3] = system: human immunodeficiency virus type 1 (HIV-1); conditions: Vonsover et al., AIDS Res Hum Retroviruses 1992; cited from earlier work
H1N1 influenza virus = system: H1N1 influenza virus; design: species or system BALB/c mice; conditions: mouse, in vivo
[4] = system: phosphorylated Akt (PI3k-Akt signaling); type: cell-based, canine

Row | Structure (SMILES) | IFN-γ secretion by primary NK cells (primary NK cells) | H5N1 virus in infected mice (lung titer, real-time RT-PCR) (H5N1 influenza virus) | H5N1 virus titers in the lungs, each tested administration time (H5N1 influenza virus) | body weight loss after infection (H5N1 influenza virus; ip) | effect against mouse cytomegalovirus (MCMV) [1] | AS101 concentration at which the effect on IFN-γ secretion decreased (YTS cells) | IFN-γ secretion by YTS cells (YTS cells) | toxicity to the cells (MTT) (MDCK cells) | NK killing of target cells (721.221 target cells) | interferon secretion in lungs of H5N1 infected mice (INFγ) | protection of cells from viral infection by supernatant of treated cells (H5N1 virus) | H1N1 virus infection, administered concomitantly with the virus [2] | H1N1 virus infection, each tested administration time [2] | replication of H1N1 influenza virus (viral titer by ELISA) [2] | effect against human immunodeficiency virus type 1 (HIV-1) [3] | H1N1 virus in infected mice (lung titer, real-time RT-PCR) (H1N1 influenza virus) | H1N1 virus titers in the lungs, each tested administration time (H1N1 influenza virus) | level of phosphorylated Akt, AS101 treatment alone [4] | level of phosphorylated Akt, cells infected with H5N1 virus ([4]; MDCK cells, 2 μg/ml, 10^2×TCID50 H5N1, 24 hours)
1 | Cl[TeH]1(Cl)(Cl)OCCO1 [AS101, ammonium trichloro(dioxyethylene-O,O′)tellurate] | increased secretion | significant inhibition | significantly reduced | weight loss was reduced somewhat | inhibitory effect | above 1 μg/ml | increased secretion | not toxic | increased NK killing | restored interferon secretion to the levels observed in uninfected mice | can protect cells from viral infection | strongest inhibition | inhibition | significant inhibition | inhibitory effect | significant inhibition | significantly reduced | increased | dramatically reduced levels
2 | CCOC(=O)C1=C[C@@H](OC(CC)CC)[C@H](NC(C)=O)[C@@H](N)C1 [oseltamivir, reference compound] | – | – | – | – | – | – | – | – | – | – | – | – | – | – | – | Inhibition | – | – | –
